Experimental data: patent US5459049A, “Motilin-like polypeptide and use thereof” (priority 1989, dated 1995)

Biological target: upper small intestine of rabbit (Oryctolagus cuniculus, UniProt G1T803)
Conditions: from ED50, contraction activity of native motilin taken as 100%
Procedure: An intestinal contraction activity was measured by Magnus method using upper small intestine of rabbit ["J. Pharm. Pharmac.", Vol. 28, pages 650-651 (1976)], on each motilin-like polypeptides (Example 1, wherein R1 is Hse, Asp-Gly-Ile-Phe-Hse, or Arg-Ile-Phe-Hse) according to the invention, as test samples and a conventional pure [Leu^13 ]-motilin, as control sample. The activities of the test samples and control sample were compared, under assumption of that an contraction activity caused by 10^-6 M acetylcholine is 100%.

Sequence of upper small intestine of rabbit (G1T803 1-400): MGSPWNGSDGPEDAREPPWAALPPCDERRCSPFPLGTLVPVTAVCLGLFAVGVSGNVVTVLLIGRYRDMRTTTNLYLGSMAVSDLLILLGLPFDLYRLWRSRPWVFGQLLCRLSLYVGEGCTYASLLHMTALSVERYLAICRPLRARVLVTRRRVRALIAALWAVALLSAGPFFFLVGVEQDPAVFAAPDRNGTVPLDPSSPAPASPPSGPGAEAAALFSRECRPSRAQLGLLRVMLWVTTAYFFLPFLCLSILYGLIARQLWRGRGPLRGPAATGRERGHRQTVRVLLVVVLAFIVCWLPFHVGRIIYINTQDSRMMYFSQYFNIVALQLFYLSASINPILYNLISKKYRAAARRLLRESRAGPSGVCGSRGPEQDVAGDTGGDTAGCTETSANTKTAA

CC[C@H](C)[C@H](NC(=O)[C@@H]1CCCN1C(=O)[C@@H](NC(=O)[C@@H](N)Cc1ccccc1)C(C)C)C(=O)N[C@@H](Cc1ccccc1)C(=O)N[C@H](C(=O)N[C@@H](Cc1ccc(O)cc1)C(=O)NCC(=O)N[C@@H](CCC(=O)O)C(=O)N[C@@H](CC(C)C)C(=O)N[C@@H](CCC(N)=O)C(=O)N[C@@H](CCCNC(=N)N)C(=O)N[C@@H](CCSC)C(=O)N[C@@H](CCC(N)=O)C(=O)N[C@@H](CCC(=O)O)C(=O)N[C@@H](CCCCN)C(=O)N[C@@H](CCC(=O)O)C(=O)N[C@@H](CCCNC(=N)N)C(=O)N[C@@H](CC(N)=O)C(=O)N[C@@H](CCCCN)C(=O)NCC(=O)N[C@@H](CCC(N)=O)C(=O)O)[C@@H](C)O [native motilin]
Activity in vitro (%): 100%
